In US20230286973A1, “PROTEIN SECRETION INHIBITORS” (KEZAR LIFE SCIENCES, priority 2020, published 2023):
pEC50, pIC50: −log10 of the molar value. Values joined by “and” are separate entries in the source; they are usually repeats but may differ in a detail not shown here. Equal entries are not always repeated.

Experiments:
[1] = tested on: PD1-ss+10aa/Gaussia Luciferase; experiment: Dox-Induced PD1-ss-Gluc Assay; type: cell-based; settings: 24 hr Dox induction; 293FRT/TO cells; read-out: 24 hr Dox Inducible PD1ssGluc 293FRT/TO: Mean IC50
Method in brief: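 Flp-In 293 T-REx, stable line; Tet-regulated PD1-ss+10aa fused to Gaussia luciferase; plated day prior; cpd + doxycycline in DMSO/media; 37 °C, 5% CO2.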

[2] = tested on: TNFα-FL/Gaussia Luciferase; experiment: Dox Induced TNFα-FL-Gluc Assay; type: cell-based; settings: for pIC50: 24 hr Dox induction, 293FRT/TO cells, read-out: 24 hr Dox Inducible TNFaFLGluc 293FRT/TO: Mean IC50; for 24 hr Dox Inducible TNFaFLGluc 293FRT/TO: TNF/PD1: ratio of TNFaFLGluc IC50 to PD1ssGluc IC50
Method in brief: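 Hygromycin/blasticidin-selected Flp-In 293 T-REx cells, TNFα-FL/Gaussia luciferase fusion under T-REx control; overnight plating, then compound in DMSO/media with doxycycline at 37 °C, 5% CO2; stereo-undefined structures tested as mixtures.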

[3] = tested on: HER3-ss+4aa/Gaussia Luciferase; experiment: Dox-Induced Her3-ss-Gluc Assay; type: cell-based; settings: 24 hr Dox induction; 293FRT/TO cells; read-out: 24 hr Dox Inducible Her3(ss + 4)Gluc 293FRT/TO: Mean IC50
Method in brief: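 Doxycycline-inducible HER3 signal sequence+4aa/Gaussia luciferase construct, stably integrated in Flp-In 293 T-REx cells; compound dilutions applied with doxycycline at 37° C., 5% CO2.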

[4] = tested on: IL-2-FL/Gaussia Luciferase; experiment: Dox Induced IL2-FL-Gluc Assay; type: cell-based; settings: for pIC50: 24 hr Dox induction, 293FRT/TO cells, read-out: 24 hr Dox Inducible IL2FLGluc 293FRT/TO: Mean IC50; for 24 hr Dox Inducible IL2FLGluc 293FRT/TO: IL2/PD1: ratio of IL2FLGluc IC50 to PD1ssGluc IC50
Method in brief: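 A hygromycin- and blasticidin-resistant 293 T-REx clone carrying inducible IL-2–Gaussia luciferase (full-length IL-2, residues 1-153) serves as the cell system. After overnight plating, the cells get test compounds together with doxycycline in DMSO/media and are incubated at 37° C, 5% CO2.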

[5] = tested on: multiple myeloma cell line NCI-H929; experiment: H929 Cell Viability Assay; type: cell-based, human; settings: NCI-H929 cells, Celltiter-Glo
Method in brief: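 A 48-hour compound treatment of cells in 10% FBS RPMI medium was followed by luciferase-based viability quantification.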

[6] = tested on: multiple myeloma cell line U266B1; experiment: U266 Cell Viability Assay; type: cell-based, human; settings: U266B1 cells, Celltiter-Glo
Method in brief: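 After growth in serum-supplemented RPMI 1640, cells received serially diluted compound in DMSO/media and were kept 48 hours before a CellTiter-Glo luminescence readout.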

[7] = Liver Microsome Stability Assay (rat); settings: rat liver microsomes, with NADPH, 1.0 uM compound
Description: (§1) Stability of a compound was assessed in the presence of liver microsomes from various sources—mouse, rat, monkey and human liver microsomes. 1.0 uM compound, 0.4% DMSO in 0.1 M Potassium Phosphate with 1.0 mg/mL liver microsomes, were incubated at 37° C. with or without 1 mM NADPH. The samples were quenched at 0, and 30 minutes.

[8] = Liver Microsome Stability Assay (mouse); settings: mouse liver microsomes, with NADPH, 1.0 uM compound
Description: as §1

[9] = Liver Microsome Stability Assay (human); settings: human liver microsomes, with NADPH, 1.0 uM compound
Description: as §1

[10] = Liver Microsome Stability Assay (monkey); settings: monkey liver microsomes, with NADPH, 1.0 uM compound
Description: as §1

Row | pIC50 [1] | pIC50 [2] | pIC50 [3] | pIC50 [4] | pEC50 ([5]; Homo sapiens, NCI-H929, 48 h) | pEC50 ([6]; Homo sapiens, U-266, 48 h) | Liver Microsome Stability (Multiple Species): Rat - % Remaining after 30 min w/NADPH [7] | Liver Microsome Stability (Multiple Species): Mouse - % Remaining after 30 min w/NADPH [8] | Liver Microsome Stability (Multiple Species): Human - % Remaining after 30 min w/NADPH [9] | Liver Microsome Stability (Multiple Species): Monkey - % Remaining after 30 min w/NADPH [10] | pEC50 ([5]; 48 hr) | pEC50 ([6]; 48 hr) | SMILES | 24 hr Dox Inducible TNFaFLGluc 293FRT/TO: TNF/PD1 [2] | 24 hr Dox Inducible IL2FLGluc 293FRT/TO: IL2/PD1 [4]
1 | 6.28 | 4.71 | 6.04 | 5.98 | 5.31 | 5.22 | 0.4% | 64.3% | 2.67% | 1.91% |  |  | O=C(Nc1nc([C@H]2CCCN2c2ccc(C3CCNCC3)cc2)cs1)c1cccn1Cc1ccncc1 [Compound A51, (R)-N-(4-(1-(4-(piperidin-4-yl)phenyl)pyrrolidin-2-yl)thiazol-2-yl)-1-(pyridin-4-ylmethyl)-1H-pyrrole-2-carboxamide] | 36.5 | 2
2 | 6.47 | 5.39 | 6.35 | 6.04 | 4.69 | < 4.60 | 0.63% | 3.47% | 1.11% | 0.33% |  |  | Cc1cc(Cn2cccc2C(=O)Nc2nc([C@H]3CCCN3c3ccccc3)cs2)ccn1 [Compound A52, (R)-1-((2-methylpyridin-4-yl)methyl)-N-(4-(1-phenylpyrrolidin-2-yl)thiazol-2-yl)-1H-pyrrole-2-carboxamide] | 11.9 | 2.7
3 | 7.71 | 6.37 | 7.38 | 7.24 | 6.17 | < 4.60 | 0.11% | 18.3% | 0.34% | 0.1% |  |  | CC(=O)N1CCC(c2ccc(N3CCC[C@@H]3c3csc(NC(=O)c4cccn4Cc4ccncc4)n3)cc2)CC1 [Compound A55, (R)-N-(4-(1-(4-(1-acetylpiperidin-4-yl)phenyl)pyrrolidin-2-yl)thiazol-2-yl)-1-(pyridin-4-ylmethyl)-1H-pyrrole-2-carboxamide] | 21.8 | 3

Second part, the molecule before the results:

Row | SMILES | pIC50 [1] | pIC50 [2] | pIC50 [3] | pIC50 [4] | pEC50 ([5]; Homo sapiens, NCI-H929, 48 h) | pEC50 ([6]; Homo sapiens, U-266, 48 h) | Liver Microsome Stability (Multiple Species): Rat - % Remaining after 30 min w/NADPH [7] | Liver Microsome Stability (Multiple Species): Mouse - % Remaining after 30 min w/NADPH [8] | Liver Microsome Stability (Multiple Species): Human - % Remaining after 30 min w/NADPH [9] | Liver Microsome Stability (Multiple Species): Monkey - % Remaining after 30 min w/NADPH [10] | pEC50 ([5]; 48 hr) | pEC50 ([6]; 48 hr) | 24 hr Dox Inducible TNFaFLGluc 293FRT/TO: TNF/PD1 [2] | 24 hr Dox Inducible IL2FLGluc 293FRT/TO: IL2/PD1 [4]
4 | Cc1cnccc1Cn1cccc1C(=O)Nc1nc([C@H]2CCCN2c2ccccc2)cs1 [Compound A53, (R)-1-((3-methylpyridin-4-yl)methyl)-N-(4-(1-phenylpyrrolidin-2-yl)thiazol-2-yl)-1H-pyrrole-2-carboxamide] | 7.62 | 6.52 | 7.50 | 7.27 | 4.69 | < 4.60 | 0.63% | 3.47% | 1.11% | 0.33% |  |  | 12.7 | 2.3
5 | O=C(Nc1nc([C@H]2CCCN2c2ccc(C(F)(F)F)cc2)cs1)c1cccn1Cc1ccnc(F)c1 [Compound A56, (R)-1-((2-fluoropyridin-4-yl)methyl)-N-(4-(1-(4-(trifluoromethyl)phenyl)pyrrolidin-2-yl)thiazol-2-yl)-1H-pyrrole-2-carboxamide] | 8.24 and 8.33 and 8.31 | 6.96 and 7.20 and 7.01 | 8.02 and 8.07 and 8.13 | 7.98 and 8.17 and 8.06 | 6.82 | < 4.60 | 48.3% and 54.8% | 81.1% and 81.8% | 43.9% and 46% | 27.3% and 25.8% | 6.83 and 6.78 | < 4.61 | 19.1 and 13.6 and 20 | 1.8 and 1.5
